# According to ChEMBL document CHEMBL1145485, “Immunomodulatory peptide from cystatin, a natural cysteine protease inhibitor, against leishmaniasis as a model macrophage disease” (Antimicrob Agents Chemother, 2007):
# Calls of active or inactive are those of the source. No cut-off for these calls is given here.
# Tests used:
# [1] = system: Macrophage; assay: Reversal of increase in NO release in BALB/c mouse peritoneal macrophages upto 1 uM in presence of anti-peptide antibody; assay type: functional, cell-based
# [2] = system: Macrophage; assay: Increase in NO release in BALB/c mouse peritoneal macrophages upto 1 uM; assay type: functional, cell-based
# [3] = system: Leishmania donovani; assay: Antileishmanial activity against Leishmania donovani MHOM/IN/1983 infected BALB/c mouse peritoneal macrophages in presence of IFN-gamma; assay type: functional, organism-based
# [4] = system: Leishmania donovani; assay: Reversal of antileishmanial activity against Leishmania donovani MHOM/IN/1983 infected BALB/c mouse peritoneal macrophages in presence of 2-amino-5,6-dihydro-6-methyl-4H-1,3-thiazine; assay type: functional, organism-based
# [5] = system: Leishmania donovani; assay: Reversal of antileishmanial activity against Leishmania donovani MHOM/IN/1983 infected BALB/c mouse peritoneal macrophages in presence of anti-peptide antibody; assay type: functional, organism-based
# [6] = system: Leishmania donovani; assay: Antileishmanial activity against Leishmania donovani AG83 infected BALB/c mouse assessed as reduction of spleen burden at 0.5 mg/kg/day, iv in presence of IFN-gamma after 45 days; assay type: functional; parameters: scale not given: the % may be the effect or the level left
# [7] = system: Leishmania donovani; assay: Antileishmanial activity against Leishmania donovani AG83 infected BALB/c mouse assessed as reduction of liver burden at 0.5 mg/kg/day, iv in presence of IFN-gamma after 45 days; assay type: functional; parameters: scale not given: the % may be the effect or the level left
substance,measurement,setting,value
H-PVPVDENDEG-OH,Activity,[1],Active
same,Activity,[2],Active
same,IC50,[3],0.52 µg/mL
same,Activity,[4],Active
same,Activity,[5],Active
same,Activity,[6],95%
same,Activity,[7],93%
